This is an account of results in article PMC6989684 (Scientific Reports, 2020).

For the test, the target named is T1, M. musculus importin-α (MmImpα), variant α2, truncated 70–529 (Mus musculus, UniProt P52293).
T1 construct: histidine tag; made in house; host or cells: Escherichia coli Rosetta (TM) pLYS
Nature of the test: Isothermal titration calorimetry (ITC), NLS peptide titrated into MmImpα. It is filed as binding. Conditions: 20 °C; for interaction with Impα receptor in words: mutated PAC-3 NLS (basic cluster to Ala), pH 8.0, protein/peptide 1:10 and 1:20; for Stoichiometry (binding): mutated PAC-3 NLS, 20 mM Tris-HCl pH 8.0, 100 mM NaCl, protein/peptide 1:10 and 1:20. An excerpt: The gene encoding the protein Impα from M. musculus was cloned into the pET30a expression vector. Recombinant MmImpα was cloned with a histidine tag and as a truncated protein (70–529) to avoid autoinhibition. The clones were provided by Dr. Bostjan Kobe from the University of Queensland (Australia). The plasmid was expressed in Escherichia coli host strain Rosetta (TM) pLYS (Novagen), and the recombinant protein was purified by affinity chromatography according to Barros et al., 2012[59]. The protein was eluted with a 0.0–0.15 M imidazole linear gradient, concentrated using an Amicon dispositive, and the buffer was changed to 20 mM Tris-HCl, pH 8.0 and 100 mM NaCl for storage. The purified protein was stored at cryogenic temperature.
The samples were submitted to ITC experiments, performed with a MicroCal iTC200 microcalorimeter (GE Healthcare), where the peptide sample was titrated into the protein sample. […] Control experiments were performed by titration of the peptide sample into the buffer, and the data obtained were subtracted from the peptide:protein titrations. Data were processed using Origin 7.0 software (Microcal Software, Northampton, MA) to obtain the thermodynamic constants of the interactions.
(ITC needs no label: the signal is the heat of the interaction.)

Consider “FDAAAAQFDDLNDFFGSVKRRQIN [PAC3Δminor, mutated PAC-3 NLS peptide, N-terminal basic cluster mutated]”, for which the “interaction with Impα receptor in words” value is listed as “no measured interaction with Impα receptor” and the “Stoichiometry (binding)” value is “No binding”.

For “FDARKRQFDDLNDFFGSVAAAQIN [PAC3Δmajor, mutated PAC-3 NLS peptide, C-terminal basic cluster mutated]”, the “interaction with Impα receptor in words” value was “no measured interaction with Impα receptor” and the “Stoichiometry (binding)” value is on record as “No binding”.
